From ChEMBL document CHEMBL3414527, “Engineering potent and selective analogues of GpTx-1, a tarantula venom peptide antagonist of the Na(V)1.7 sodium channel” (J Med Chem, 2015)
Bridge positions count the residues as written; N and C are the ends. Peptide text beside a SMILES is read from it.

Target: Sodium channel protein type 5 subunit alpha (Homo sapiens, UniProt Q14524)
Test: Inhibition of human NaV1.5 at -140 mV holding potential by whole-cell patch clamp assay

Sequence of Sodium channel protein type 5 subunit alpha (Q14524 whole entry): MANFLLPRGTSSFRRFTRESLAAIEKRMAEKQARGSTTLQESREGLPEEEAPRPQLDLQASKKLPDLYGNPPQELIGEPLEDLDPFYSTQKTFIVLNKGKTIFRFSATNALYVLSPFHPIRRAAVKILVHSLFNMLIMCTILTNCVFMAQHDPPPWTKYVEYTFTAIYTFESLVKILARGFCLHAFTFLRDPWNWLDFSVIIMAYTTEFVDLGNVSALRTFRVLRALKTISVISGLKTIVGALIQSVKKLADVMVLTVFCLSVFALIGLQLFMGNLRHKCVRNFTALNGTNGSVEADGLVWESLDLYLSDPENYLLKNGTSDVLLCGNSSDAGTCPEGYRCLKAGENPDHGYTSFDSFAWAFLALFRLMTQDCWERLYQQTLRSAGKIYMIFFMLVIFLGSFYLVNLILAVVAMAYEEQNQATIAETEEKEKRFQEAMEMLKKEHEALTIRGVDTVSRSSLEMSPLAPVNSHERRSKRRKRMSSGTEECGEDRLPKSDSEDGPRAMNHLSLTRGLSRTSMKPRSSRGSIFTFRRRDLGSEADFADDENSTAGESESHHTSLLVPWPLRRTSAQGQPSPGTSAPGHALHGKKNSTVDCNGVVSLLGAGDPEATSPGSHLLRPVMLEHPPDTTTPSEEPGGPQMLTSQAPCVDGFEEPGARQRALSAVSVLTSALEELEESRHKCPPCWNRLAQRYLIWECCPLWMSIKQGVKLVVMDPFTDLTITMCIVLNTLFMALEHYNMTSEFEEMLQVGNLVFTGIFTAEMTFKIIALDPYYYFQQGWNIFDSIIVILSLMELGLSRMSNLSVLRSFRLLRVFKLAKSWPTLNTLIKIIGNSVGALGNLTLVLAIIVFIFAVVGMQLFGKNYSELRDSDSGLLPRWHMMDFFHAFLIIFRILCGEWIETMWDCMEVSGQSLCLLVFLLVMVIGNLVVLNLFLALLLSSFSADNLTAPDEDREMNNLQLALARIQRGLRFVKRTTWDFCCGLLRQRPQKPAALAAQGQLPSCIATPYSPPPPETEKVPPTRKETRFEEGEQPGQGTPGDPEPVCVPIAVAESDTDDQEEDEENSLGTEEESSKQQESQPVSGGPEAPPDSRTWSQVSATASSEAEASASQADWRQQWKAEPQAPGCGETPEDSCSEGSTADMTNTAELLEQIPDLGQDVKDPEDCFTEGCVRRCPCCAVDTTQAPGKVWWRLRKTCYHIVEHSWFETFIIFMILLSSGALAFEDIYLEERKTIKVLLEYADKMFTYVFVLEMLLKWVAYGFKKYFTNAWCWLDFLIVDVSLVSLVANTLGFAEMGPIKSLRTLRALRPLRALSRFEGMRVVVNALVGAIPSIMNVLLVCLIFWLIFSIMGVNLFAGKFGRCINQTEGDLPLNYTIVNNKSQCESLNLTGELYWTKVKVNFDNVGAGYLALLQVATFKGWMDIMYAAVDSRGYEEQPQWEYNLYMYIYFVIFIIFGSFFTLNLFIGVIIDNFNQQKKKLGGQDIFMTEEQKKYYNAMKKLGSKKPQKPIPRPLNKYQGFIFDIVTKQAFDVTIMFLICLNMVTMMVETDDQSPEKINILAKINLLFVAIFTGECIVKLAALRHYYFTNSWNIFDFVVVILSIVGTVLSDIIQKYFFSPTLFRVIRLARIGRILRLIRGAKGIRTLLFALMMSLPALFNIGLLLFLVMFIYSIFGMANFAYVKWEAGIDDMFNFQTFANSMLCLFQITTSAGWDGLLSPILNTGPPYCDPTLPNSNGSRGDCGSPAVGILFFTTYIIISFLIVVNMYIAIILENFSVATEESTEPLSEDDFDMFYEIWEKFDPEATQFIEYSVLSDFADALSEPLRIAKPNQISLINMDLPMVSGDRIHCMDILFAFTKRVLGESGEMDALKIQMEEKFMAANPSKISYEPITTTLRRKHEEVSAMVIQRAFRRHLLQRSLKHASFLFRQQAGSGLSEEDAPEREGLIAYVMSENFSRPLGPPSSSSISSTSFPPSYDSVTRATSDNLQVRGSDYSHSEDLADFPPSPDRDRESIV

SMILES	IC50
CC[C@H](C)[C@@H]1NC(=O)[C@@H]2CSSC[C@@H]3NC(=O)[C@H](C(C)C)NC(=O)[C@H](CC(C)C)NC(=O)[C@H](C)NC(=O)[C@@H]4CCCN4C(=O)[C@H](CCCNC(=N)N)NC(=O)[C@H](CSSC[C@H](NC(=O)[C@@H](N)CC(=O)O)C(=O)N[C@@H](CC(C)C)C(=O)NCC(=O)N[C@@H](Cc4ccccc4)C(=O)N[C@@H](CCSC)C(=O)N[C@@H](CCCNC(=N)N)C(=O)N[C@@H](CCCCN)C(=O)N2)NC(=O)[C@H](CSSC[C@@H](C(=O)N[C@@H](CCCCN)C(=O)N[C@@H](Cc2ccc(O)cc2)C(=O)N[C@H](C(=O)N[C@@H](Cc2ccccc2)C(N)=O)C(C)C)NC(=O)[C@H](Cc2c[nH]c4ccccc24)NC(=O)[C@H](CCCCN)NC(=O)[C@H](Cc2cnc[nH]2)NC(=O)[C@H]([C@@H](C)O)NC(=O)[C@H](CCCNC(=N)N)NC(=O)[C@H](CO)NC3=O)NC(=O)[C@H](CCCCN)NC(=O)[C@H](CC(=O)O)NC(=O)[C@H](CC(N)=O)NC(=O)[C@H](CC(=O)O)NC(=O)[C@@H]2CCCN2C1=O (H-DCLGFMRKCIPDNDKCCRPALVCSRTHKWCKYVF-NH2; disulfide 2-17, 9-23, 16-30)	> 5 µM
CSCC[C@@H]1NC(=O)[C@H](Cc2ccccc2)NC(=O)CNC(=O)[C@H](CC(C)C)NC(=O)[C@@H](NC(=O)[C@@H](N)CC(=O)O)CSSC[C@@H]2NC(=O)[C@@H]3CSSC[C@@H](C(=O)N[C@@H](CCCCN)C(=O)N[C@@H](Cc4ccc(O)cc4)C(=O)N[C@H](C(=O)N[C@@H](Cc4ccccc4)C(N)=O)C(C)C)NC(=O)[C@H](Cc4c[nH]c5ccccc45)NC(=O)[C@H](CCCCN)NC(=O)[C@H](Cc4cnc[nH]4)NC(=O)[C@H]([C@@H](C)O)NC(=O)[C@H](CCCNC(=N)N)NC(=O)[C@H](CO)NC(=O)[C@H](CSSC[C@H](NC(=O)[C@H](CCCCN)NC(=O)[C@H](CCCNC(=N)N)NC1=O)C(=O)N[C@@H](C)C(=O)N1CCC[C@H]1C(=O)N[C@@H](CC(=O)O)C(=O)N[C@@H](CC(N)=O)C(=O)N[C@@H](CC(=O)O)C(=O)N[C@@H](CCCCN)C(=O)N3)NC(=O)[C@H](C(C)C)NC(=O)[C@H](CC(C)C)NC(=O)[C@H](CC(N)=O)NC(=O)[C@@H]1CCCN1C(=O)[C@H](CCCNC(=N)N)NC2=O (H-DCLGFMRKCAPDNDKCCRPNLVCSRTHKWCKYVF-NH2; disulfide 2-17, 9-23, 16-30)	> 5 µM
CC[C@H](C)[C@@H]1NC(=O)[C@@H]2CSSC[C@@H]3NC(=O)[C@H](C(C)C)NC(=O)[C@H](CC(C)C)NC(=O)[C@H](CC(N)=O)NC(=O)[C@@H]4CCCN4C(=O)[C@H](CCCNC(=N)N)NC(=O)[C@H](CSSC[C@H](NC(=O)[C@@H](N)CC(=O)O)C(=O)N[C@@H](CC(C)C)C(=O)NCC(=O)N[C@@H](Cc4ccccc4)C(=O)N[C@@H](CCSC)C(=O)N[C@@H](CCCNC(=N)N)C(=O)N[C@@H](CCCCN)C(=O)N2)NC(=O)[C@H](CSSC[C@@H](C(=O)N[C@@H](CCCCN)C(=O)N[C@@H](Cc2ccc(O)cc2)C(=O)N[C@H](C(=O)N[C@@H](Cc2ccccc2)C(N)=O)C(C)C)NC(=O)[C@H](Cc2c[nH]c4ccccc24)NC(=O)[C@H](CCCCN)NC(=O)[C@H](Cc2cnc[nH]2)NC(=O)[C@H]([C@@H](C)O)NC(=O)[C@H](CCCNC(=N)N)NC(=O)[C@H](CO)NC3=O)NC(=O)[C@H](CCCCN)NC(=O)[C@H](CC(=O)O)NC(=O)[C@H](CC(N)=O)NC(=O)[C@H](C)NC(=O)[C@@H]2CCCN2C1=O (H-DCLGFMRKCIPANDKCCRPNLVCSRTHKWCKYVF-NH2; disulfide 2-17, 9-23, 16-30)	> 5 µM
CCCC[C@@H]1NC(=O)[C@H](Cc2ccccc2)NC(=O)CNC(=O)[C@H](CC(C)C)NC(=O)[C@@H](NC(=O)[C@@H](N)CC(=O)O)CSSC[C@@H]2NC(=O)[C@@H]3CSSC[C@@H](C(=O)N[C@@H](CCCCN)C(=O)N[C@@H](Cc4ccc(O)cc4)C(=O)N[C@H](C(=O)N[C@@H](Cc4ccccc4)C(N)=O)C(C)C)NC(=O)[C@H](Cc4c[nH]c5ccccc45)NC(=O)[C@H](CCCCN)NC(=O)[C@H](Cc4cnc[nH]4)NC(=O)[C@H]([C@@H](C)O)NC(=O)[C@H](CCCNC(=N)N)NC(=O)[C@H](CO)NC(=O)[C@H](CSSC[C@H](NC(=O)[C@H](CCCCN)NC(=O)[C@H](CCCNC(=N)N)NC1=O)C(=O)N[C@@H]([C@@H](C)CC)C(=O)N1CCC[C@H]1C(=O)N[C@@H](CC(=O)O)C(=O)N[C@@H](CC(N)=O)C(=O)N[C@@H](CC(=O)O)C(=O)N[C@@H](CCCCN)C(=O)N3)NC(=O)[C@H](C(C)C)NC(=O)[C@H](CC(C)C)NC(=O)[C@H](CC(N)=O)NC(=O)[C@@H]1CCCN1C(=O)[C@H](CCCNC(=N)N)NC2=O	1.1 µM
CCCC[C@@H]1NC(=O)[C@H](C)NC(=O)CNC(=O)[C@H](CC(C)C)NC(=O)[C@@H](NC(=O)[C@@H](N)CC(=O)O)CSSC[C@@H]2NC(=O)[C@@H]3CSSC[C@@H](C(=O)N[C@@H](CCCCN)C(=O)N[C@@H](Cc4ccc(O)cc4)C(=O)N[C@H](C(=O)N[C@@H](Cc4ccccc4)C(N)=O)C(C)C)NC(=O)[C@H](Cc4c[nH]c5ccccc45)NC(=O)[C@H](CCCCN)NC(=O)[C@H](Cc4cnc[nH]4)NC(=O)[C@H]([C@@H](C)O)NC(=O)[C@H](CCCNC(=N)N)NC(=O)[C@H](CO)NC(=O)[C@H](CSSC[C@H](NC(=O)[C@H](CCCCN)NC(=O)[C@H](CCCNC(=N)N)NC1=O)C(=O)N[C@@H]([C@@H](C)CC)C(=O)N1CCC[C@H]1C(=O)N[C@@H](CC(=O)O)C(=O)N[C@@H](CC(N)=O)C(=O)N[C@@H](CC(=O)O)C(=O)N[C@@H](CCCCN)C(=O)N3)NC(=O)[C@H](C(C)C)NC(=O)[C@H](CC(C)C)NC(=O)[C@H](CC(N)=O)NC(=O)[C@@H]1CCCN1C(=O)[C@H](CCCNC(=N)N)NC2=O	> 10 µM
CC[C@H](C)[C@@H]1NC(=O)[C@@H]2CSSC[C@@H]3NC(=O)[C@H](C(C)C)NC(=O)[C@H](CC(C)C)NC(=O)[C@H](CC(N)=O)NC(=O)[C@@H]4CCCN4C(=O)[C@H](CCCNC(=N)N)NC(=O)[C@H](CSSC[C@H](NC(=O)[C@@H](N)CC(=O)O)C(=O)N[C@@H](CC(C)C)C(=O)NCC(=O)N[C@@H](C4CCCC4)C(=O)N[C@@H](CCSC)C(=O)N[C@@H](CCCNC(=N)N)C(=O)N[C@@H](CCCCN)C(=O)N2)NC(=O)[C@H](CSSC[C@@H](C(=O)N[C@@H](CCCCN)C(=O)N[C@@H](Cc2ccc(O)cc2)C(=O)N[C@H](C(=O)N[C@@H](Cc2ccccc2)C(N)=O)C(C)C)NC(=O)[C@H](Cc2c[nH]c4ccccc24)NC(=O)[C@H](CCCCN)NC(=O)[C@H](Cc2cnc[nH]2)NC(=O)[C@H]([C@@H](C)O)NC(=O)[C@H](CCCNC(=N)N)NC(=O)[C@H](CO)NC3=O)NC(=O)[C@H](CCCCN)NC(=O)[C@H](CC(=O)O)NC(=O)[C@H](CC(N)=O)NC(=O)[C@H](CC(=O)O)NC(=O)[C@@H]2CCCN2C1=O	> 10 µM
CC[C@H](C)[C@@H]1NC(=O)[C@@H]2CSSC[C@@H]3NC(=O)[C@H](C)NC(=O)[C@H](CC(C)C)NC(=O)[C@H](CC(N)=O)NC(=O)[C@@H]4CCCN4C(=O)[C@H](CCCNC(=N)N)NC(=O)[C@H](CSSC[C@H](NC(=O)[C@@H](N)CC(=O)O)C(=O)N[C@@H](CC(C)C)C(=O)NCC(=O)N[C@@H](Cc4ccccc4)C(=O)N[C@@H](CCSC)C(=O)N[C@@H](CCCNC(=N)N)C(=O)N[C@@H](CCCCN)C(=O)N2)NC(=O)[C@H](CSSC[C@@H](C(=O)N[C@@H](CCCCN)C(=O)N[C@@H](Cc2ccc(O)cc2)C(=O)N[C@H](C(=O)N[C@@H](Cc2ccccc2)C(N)=O)C(C)C)NC(=O)[C@H](Cc2c[nH]c4ccccc24)NC(=O)[C@H](CCCCN)NC(=O)[C@H](Cc2cnc[nH]2)NC(=O)[C@H]([C@@H](C)O)NC(=O)[C@H](CCCNC(=N)N)NC(=O)[C@H](CO)NC3=O)NC(=O)[C@H](CCCCN)NC(=O)[C@H](CC(=O)O)NC(=O)[C@H](CC(N)=O)NC(=O)[C@H](CC(=O)O)NC(=O)[C@@H]2CCCN2C1=O (H-DCLGFMRKCIPDNDKCCRPNLACSRTHKWCKYVF-NH2; disulfide 2-17, 9-23, 16-30)	> 5 µM
CC[C@H](C)[C@@H]1NC(=O)[C@@H]2CSSC[C@@H]3NC(=O)[C@H](C(C)C)NC(=O)[C@H](CC(C)C)NC(=O)[C@H](CC(N)=O)NC(=O)[C@@H]4CCCN4C(=O)[C@H](CCCNC(=N)N)NC(=O)[C@H](CSSC[C@H](NC(=O)[C@@H](N)CC(=O)O)C(=O)N[C@@H](CC(C)C)C(=O)NCC(=O)N[C@@H](Cc4ccccc4)C(=O)N[C@@H](CCSC)C(=O)N[C@@H](CCCNC(=N)N)C(=O)N[C@@H](CCCCN)C(=O)N2)NC(=O)[C@H](CSSC[C@@H](C(=O)N[C@@H](CCCCN)C(=O)N[C@@H](Cc2ccc(O)cc2)C(=O)N[C@H](C(=O)N[C@@H](Cc2ccccc2)C(=O)N[C@@H](C)C(N)=O)C(C)C)NC(=O)[C@H](Cc2c[nH]c4ccccc24)NC(=O)[C@H](CCCCN)NC(=O)[C@H](Cc2cnc[nH]2)NC(=O)[C@H]([C@@H](C)O)NC(=O)[C@H](CCCNC(=N)N)NC(=O)[C@H](CO)NC3=O)NC(=O)[C@H](CCCCN)NC(=O)[C@H](CC(=O)O)NC(=O)[C@H](CC(N)=O)NC(=O)[C@H](CC(=O)O)NC(=O)[C@@H]2CCCN2C1=O	> 5 µM
CC[C@H](C)[C@@H]1NC(=O)[C@@H]2CSSC[C@@H]3NC(=O)[C@H](C(C)C)NC(=O)[C@H](CC(C)C)NC(=O)[C@H](CC(N)=O)NC(=O)[C@@H]4CCCN4C(=O)[C@H](CCCNC(=N)N)NC(=O)[C@H](CSSC[C@H](NC(=O)[C@@H](N)CC(=O)O)C(=O)N[C@@H](CC(C)C)C(=O)NCC(=O)N[C@@H](CCSC)C(=O)N[C@@H](CCSC)C(=O)N[C@@H](CCCNC(=N)N)C(=O)N[C@@H](CCCCN)C(=O)N2)NC(=O)[C@H](CSSC[C@@H](C(=O)N[C@@H](CCCCN)C(=O)N[C@@H](Cc2ccc(O)cc2)C(=O)N[C@H](C(=O)N[C@@H](Cc2ccccc2)C(N)=O)C(C)C)NC(=O)[C@H](Cc2c[nH]c4ccccc24)NC(=O)[C@H](CCCCN)NC(=O)[C@H](Cc2cnc[nH]2)NC(=O)[C@H]([C@@H](C)O)NC(=O)[C@H](CCCNC(=N)N)NC(=O)[C@H](CO)NC3=O)NC(=O)[C@H](CCCCN)NC(=O)[C@H](CC(=O)O)NC(=O)[C@H](CC(N)=O)NC(=O)[C@H](CC(=O)O)NC(=O)[C@@H]2CCCN2C1=O (H-DCLGMMRKCIPDNDKCCRPNLVCSRTHKWCKYVF-NH2; disulfide 2-17, 9-23, 16-30)	> 10 µM
